Test results reported in patent US9549985B2, “Compositions comprising polymers prepared from 2-hydroxyalkyl acids” (UNIVERSITE DE GENEVE, priority 2010, dated 2017).

Experiment: Solubility of Haloperidol in the hexPLA matrix
Type: physicochemical
Conditions: depends on polymer molecular weight

## O=C(CCCN1CCC(O)(c2ccc(Cl)cc2)CC1)c1ccc(F)cc1 [Haloperidol]
  Solubility of Haloperidol in hexPLA matrix: dissolvable
